Experimental data reported in article PMC10283505, “CVM-1118 (foslinanib), a 2-phenyl-4-quinolone derivative, promotes apoptosis and inhibits vasculogenic mimicry via targeting TRAP1” (Pathology and Oncology Research, 2023).
pIC50: −log10 of the molar value.

Legend:
[1] = test system: A549; experiment: Cytotoxicity assay (Alamar Blue, 72 h); type: cell-based; conditions: Homo sapiens, A549 (Lung)
Experimental: (§1) For cytotoxicity and cell cycle analysis, the following cell lines were used, and their culture conditions were as described: for A549, DU-145, HT-29, MDA-MB-231, Mia PaCa-2, and U118MG, cells were cultured in DMEM containing 10% FCS; for MDA- MB-435 and NCI-ADR-RES, cells were cultured in RPMI-1640 containing 10% FCS, and for SK-N-MC, cells were cultured in MEM containing 10% FCS. For the animal pharmacology study, HCT-116, a colon cancer cell line was tested. Cells were cultured in McCoy’s 5a medium supplemented with 10% heat inactivated fetal bovine serum. For the cell lines used in VM analysis and target identification, C8161 and COLO205 cells were maintained in RPMI-1640 containing 10% FBS and 0.1% gentamycin sulfate. The SKOV3 line was cultured in RPMI-1640 supplemented with 15% FBS and 0.1% gentamycin sulfate. For the SK-MEL28 and MCF-7, cells were maintained in MEM/Earles Salts supplemented with 10% FBS and 0.1% gentamycin sulfate.
(§2) This assay was conducted in ProQinase GmbH (Freiburg, Germany). Nine cancer cell lines (A549, DU-145, HT-29, MDA-MB-231, MDA-MB-435, Mia PaCa-2, NCI-ADR-RES, SK-N-MC, and U118MG) were seeded at 5,000 cells/well in 96-well cell culture plates in 150 µL of complete medium for 24 h prior to treatment. The test compounds CVM-1118 and CVM-1125 were synthesized by China Medical University, Chengdu Chempartner Co., Ltd., and Formosa Laboratories, Inc. To prepare the assay, the compounds were dissolved in 100% DMSO at a concentration of […]. Cells were then treated with vehicle, CVM-1118 or CVM-1125 at various concentrations for 72 h. Cell viability was determined by the fluorescent quantification of Alamar Blue (Invitrogen, Thermo Fisher Scientific). By the end of incubation, Alamar Blue reagent was added to the well for 4 h and the fluorescence was measured at 590 nm. The amount of fluorescence produced is proportional to the number of metabolically active cells. IC50 determination was performed using a variable slope sigmoidal response fitting model with 0% cell growth as a bottom constraint and 100% cell growth as a top constraint (GraphPad Prism, United States).

[2] = test system: DU-145; experiment: Cytotoxicity assay (Alamar Blue, 72 h); type: cell-based; conditions: Homo sapiens, DU-145 (Prostate)
Experimental: as §1, §2

[3] = test system: HT-29; experiment: Cytotoxicity assay (Alamar Blue, 72 h); type: cell-based; conditions: Homo sapiens, HT-29 (Colon)
Experimental: as §1, §2

[4] = test system: MDA-MB-231; experiment: Cytotoxicity assay (Alamar Blue, 72 h); type: cell-based; conditions: Homo sapiens, MDA-MB-231 (Breast)
Experimental: as §1, §2

[5] = test system: MDA-MB-435; experiment: Cytotoxicity assay (Alamar Blue, 72 h); type: cell-based; conditions: Homo sapiens, MDA-MB-435 (Melanoma)
Experimental: as §1, §2

[6] = test system: Mia PaCa-2; experiment: Cytotoxicity assay (Alamar Blue, 72 h); type: cell-based; conditions: Homo sapiens, Mia PaCa-2 (Pancreatic)
Experimental: as §1, §2

[7] = test system: NCI-ADR-RES; experiment: Cytotoxicity assay (Alamar Blue, 72 h); type: cell-based; conditions: Homo sapiens, NCI-ADR-RES (Ovarian)
Experimental: as §1, §2

[8] = test system: SK-N-MC; experiment: Cytotoxicity assay (Alamar Blue, 72 h); type: cell-based; conditions: Homo sapiens, SK-N-MC (Neuroblastoma)
Experimental: as §1, §2

[9] = test system: U118MG; experiment: Cytotoxicity assay (Alamar Blue, 72 h); type: cell-based; conditions: Homo sapiens, U-118-MG, U118MG (Glioma)
Experimental: as §1, §2

[10] = test system: nine selected human cancer cell lines; experiment: Cytotoxicity assay, panel of nine selected human cancer cell lines; type: cell-based; conditions: all nine cell lines of Table 1
Experimental: as §2

[11] = Pharmacokinetic study of oral CVM-1118 in mouse (plasma, LC-MS/MS); type: in vivo, male CD-1 mice; conditions: for AUC(0-inf) / AUC(0-t) / Cmax / MRT / Tmax / half-life: mouse, analyte in plasma after single oral CVM-1118 30 mg/kg in 9% NaHCO3, fasted male CD-1 mice; for half-life: read-out: T1/2 (terminal half-life) (converted)
Experimental: Supplementary Results on Pharmacokinetic study of oral CVM-1118 in Mouse Method: The pharmacokinetics of CVM-1118 and CVM-1125 were investigated in male CD-1 mice following a single oral administration of CVM-1118 at 30 mg/kg in 9% NaHCO3 in fasted mice. At pre-determined time points, plasma samples were collected and stored at -20°C prior to measurement of CVM-1118 and CVM-1125 concentrations using an LC-MS/MS method. The plasma samples were collected at 0, 0.25, 0.5, 1, 2, 4, 8, 12, 24 and 27 h after dosing with 3 mice per group at each time […]
Result: For single oral administration of 30 mg/kg CVM-1118 in 9% NaHCO3 solution, […]
from CVM-1118 to CVM-1125 occurred very rapidly.
1118 and CVM-1125. The drug exposure (AUC0-inf) of CVM-1118 was low (7 ng·h/mL), indicating rapid conversion to CVM-1125 following oral dosing (AUC0-inf of TRX-818M1 was 287 ng·h/mL). The terminal half-life of CVM-1118 and CVM-1125 were 0.7 h and 8.3 h, respectively. The oral bioavailability of CVM-1118 was low (~3%), […]
1118, was considered favorable.
Mean plasma concentrations-time curves of CVM-1118 and CVM-1125 following a single dose of CVM-1118 in male CD-1 mice
(1 picture or pasted object on this page, not shown here)

COc1ccc2[nH]c(-c3cccc(F)c3)cc(=O)c2c1OP(=O)(O)O [CVM-1118] showed a pIC50 [1] of 7.59, a pIC50 [2] of 7.68 and a pIC50 [3] of 7.82. For the same compound, the pIC50 [4] was 7.74, the pIC50 [5] was 8.40 and the pIC50 [6] was 7.96. The pIC50 [7] was 7.85, the pIC50 [8] was 8.05 and the pIC50 [9] was 8.00. For the same compound, the pIC50 [10] was over 7.30, the bioavailability ([11]; male, CD-1, mouse, plasma, po, 30 mg/kg, single oral CVM-1118 30 mg/kg in 9% NaHCO3, fasted male CD-1 mice, read-out: F (oral bioavailability)) was about 3% and the AUC(0-inf) [11] was 7 ng·h/mL. It also gave an AUC(0-t) [11] of 7 ng·h/mL, a Cmax [11] of 21 ng/mL and an MRT [11] of 36 min. For the same compound, the Tmax [11] was 15 min, the half-life [11] was 42 min and the “F (oral bioavailability)” value ([11]; single oral CVM-1118 30 mg/kg in 9% NaHCO3, fasted male CD-1 mice, 30 mg/kg) was 2.96%.

COc1ccc2[nH]c(-c3cccc(F)c3)cc(=O)c2c1O [CVM-1125] gave a pIC50 [1] of 7.54, a pIC50 [2] of 7.57 and a pIC50 [3] of 7.77. The pIC50 [4] was 7.85, the pIC50 [5] was 8.30 and the pIC50 [6] was 8.15. For the same compound, the pIC50 [7] was 7.85, the pIC50 [8] was 8.10 and the pIC50 [9] was 8.10. For the same compound, the pIC50 [10] was over 7.30, the AUC(0-inf) [11] was 287 ng·h/mL and the AUC(0-t) [11] was 279 ng·h/mL. For the same compound, the Cmax [11] was 349 ng/mL, the MRT [11] was 180 min and the Tmax [11] was 15 min. For the same compound, the half-life [11] was 498 min.
